{
  "source": "patent EP4796129A1",
  "about": "“ANTI-NECTIN-4 ANTIBODY-DRUG CONJUGATE COMPRISING CAMPTOTHECIN DERIVATIVE” (Celltrion, Inc., priority 2023, dated 2025)",
  "key": {"[1]": {"test_system": "PC-3 (a prostate cancer cell line)", "assay": "In-vitro cell viability assay (CellTiter-Glo)", "format": "cell-based"}, "[2]": {"test_system": "SUM190PT (a breast cancer cell line)", "assay": "In-vitro cell viability assay (CellTiter-Glo)", "format": "cell-based"}, "[3]": {"test_system": "T47D (a breast cancer cell line)", "assay": "cells", "conditions": "Homo sapiens", "experimental": "Specifically, the cell lines described in Table 5 were seeded per well in a 96-well plate and incubated at room temperature (37°C, 5% CO2). After 24 hours, the cells were treated with 100 µL of payload compounds or ADC drugs at 9 concentrations (a 4-fold serial dilution starting from 1,000 nM). In particular, a control group (drug concentration 0), which is an untreated group, was also prepared. After 6 days of incubation (37°C, 5% CO2), 100 µL of CellTiter-Glo reagent (CellTiter-Glo® Luminescent Cell Viability Assay kit (Promega, G7571)) was added to each well and pipetted. Fluorescence was measured after incubation at room temperature (RT) for 10 minutes."}, "T47D human breast cancer": {"test_system": "T47D human breast cancer", "assay": "Xenograft model of T47D human breast cancer (xxT47D) in BALB/c nude mice", "format": "in vivo, female BALB/c nude mice", "conditions": "50 mg/kg p.o. QD x 4 weeks"}, "[4]": {"test_system": "bladder cancer xenograft model (BL9200)", "assay": "HuPrime bladder cancer xenograft model (BL9200) in NOD/SCID mice", "format": "in vivo, NOD/SCID strain female mice", "conditions": "for Tumor Volume (mean ± SEM), Day 25: number of mice in brackets"}},
  "data": [
    {"compound": "CC[C@@]1(O)C(=O)OCc2c1cc1n(c2=O)Cc2c-1nc1cc(F)c(C)c3c1c2[C@@H](N)CC3", "note": "[Exatecan, reference compound]", "values": [
      {"measurement": "IC50", "setting": "[1]", "result": 0.62, "unit": "nM"},
      {"measurement": "IC50", "setting": "[2]", "result": 2.3, "unit": "nM"}
    ]},
    {"compound": "CC[C@@]1(O)C(=O)OCc2c1cc1n(c2=O)Cc2c-1nc1cc3c(c4c1c2[C@@H](NC(=O)[C@@H](C)O)CC4)OCO3", "note": "[PBX-7016]", "values": [
      {"measurement": "IC50", "setting": "[3]", "result": 0.47, "unit": "nM"},
      {"measurement": "IC50", "setting": "[1]", "result": 3.51, "unit": "nM"},
      {"measurement": "IC50", "setting": "[2]", "result": 9.4, "unit": "nM"}
    ]},
    {"compound": "CC(=O)c1c(C)c2cnc(Nc3ccc(N4CCNCC4)cn3)nc2n(C2CCCC2)c1=O", "note": "[Palbociclib]", "values": [
      {"measurement": "Tumor Weight (g) on Day 28, mean ± SEM", "setting": "T47D human breast cancer", "result": "0.396 ± 0.047", "unit": "g"},
      {"measurement": "Tumor Volume (mm^3), mean ± SEM", "setting": "T47D human breast cancer; day 3", "result": "249 ± 17", "unit": "mm^3"},
      {"measurement": "Tumor Volume (mm^3), mean ± SEM", "setting": "T47D human breast cancer; day 7", "result": "290 ± 22", "unit": "mm^3"},
      {"measurement": "Tumor Volume (mm^3), mean ± SEM", "setting": "T47D human breast cancer; day 10", "result": "328 ± 23", "unit": "mm^3"},
      {"measurement": "Tumor Volume (mm^3), mean ± SEM", "setting": "T47D human breast cancer; day 14", "result": "342 ± 26", "unit": "mm^3"},
      {"measurement": "Tumor Volume (mm^3), mean ± SEM", "setting": "T47D human breast cancer; day 17", "result": "344 ± 29", "unit": "mm^3"},
      {"measurement": "Tumor Volume (mm^3), mean ± SEM", "setting": "T47D human breast cancer; day 21", "result": "360 ± 36", "unit": "mm^3"},
      {"measurement": "Tumor Volume (mm^3), mean ± SEM", "setting": "T47D human breast cancer; day 24", "result": "384 ± 42", "unit": "mm^3"},
      {"measurement": "T/Cweight (%)", "setting": "T47D human breast cancer; day 28", "result": 41.79, "unit": "%"},
      {"measurement": "TGI (%)", "setting": "T47D human breast cancer; day 28", "result": 70.93, "unit": "%"},
      {"measurement": "Tumor Volume (mm^3), mean ± SEM", "setting": "T47D human breast cancer; day 28", "result": "407 ± 49", "unit": "mm^3"},
      {"measurement": "T/C (%)", "setting": "T47D human breast cancer; tumor volume day 28 vs control G1", "result": 43.63, "unit": "%"}
    ]},
    {"compound": "PADCEV: ADC in which anti-Nectin4 mAb and MMAE are linked by an mc-vc-PAB linker [reference compound]", "values": [
      {"measurement": "TGI (%), Day 25", "setting": "[4]; 5 mg/kg i.v. QW × 3wks", "result": 108.4, "unit": "%"},
      {"measurement": "ΔT/ΔC (%), Day 25", "setting": "[4]; 5 mg/kg i.v. QW × 3wks", "result": -8.4, "unit": "%"},
      {"measurement": "Tumor Volume (mean ± SEM), Day 25", "setting": "[4]; 5 mg/kg i.v. QW × 3wks", "result": "27.26 +/- 2.75(10) mm^3"},
      {"measurement": "TGI (%), Day 25", "setting": "[4]; 10 mg/kg i.v. QW × 3wks", "result": 109.4, "unit": "%"},
      {"measurement": "ΔT/ΔC (%), Day 25", "setting": "[4]; 10 mg/kg i.v. QW × 3wks", "result": -9.4, "unit": "%"},
      {"measurement": "Tumor Volume (mean ± SEM), Day 25", "setting": "[4]; 10 mg/kg i.v. QW × 3wks", "result": "11.07 +/- 3.12(10) mm^3"}
    ]}
  ]
}
